# Values quoted from earlier work, collected in patent US20240285564A1, “USE OF (S)-3-AMINO-4-(DIFLUOROMETHYLENYL)CYCLOPENT-1-ENE-1-CARBOXYLIC ACID FOR GASTROINTESTINAL TRACT DISORDERS AND AS AN IMMUNOMODULATORY AGENT” (Ovid Therapeutics Inc., priority 2023, published 2024).
# Experiments:
# [1] = biological target: aspartate aminotransferase (Asp-AT)
# [2] = biological target: alanine aminotransferase (Ala-AT)
# [3] = biological target: T1, OAT (Homo sapiens, UniProt P04181)
# T1 sequence (P04181 36-439 limits assumed): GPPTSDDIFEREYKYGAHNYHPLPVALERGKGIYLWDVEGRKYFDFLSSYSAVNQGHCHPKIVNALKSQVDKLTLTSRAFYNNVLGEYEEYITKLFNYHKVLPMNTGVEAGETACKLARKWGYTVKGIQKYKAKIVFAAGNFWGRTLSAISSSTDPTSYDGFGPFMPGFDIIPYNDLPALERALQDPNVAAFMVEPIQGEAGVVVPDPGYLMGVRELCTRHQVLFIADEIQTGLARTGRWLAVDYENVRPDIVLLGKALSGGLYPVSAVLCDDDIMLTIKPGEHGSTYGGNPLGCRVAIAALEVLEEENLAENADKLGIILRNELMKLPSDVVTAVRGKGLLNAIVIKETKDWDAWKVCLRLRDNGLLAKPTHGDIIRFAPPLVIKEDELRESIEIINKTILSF
# [4] = read-out: IC50 (reversible inhibition)
SMILES,"IC50 [1, 4]","IC50 [2, 4]",kintact [3],kintact/KI [3],times more efficient an inactivator of OAT than CPP-115 ([3]; relative to CPP-115),inactivation or inhibition of off-target enzyme [1],inactivation or inhibition of off-target enzyme [2],Ki [3]
N[C@H]1C=C(C(=O)O)CC1=C(F)F [(S)-3-amino-4-(difluoromethylenyl)cyclopent-1-ene-1-carboxylic acid],> 4 mM,> 4 mM,0.025 min⁻¹,7.6 mM⁻¹ min⁻¹,9.0 times,,,
"N[C@H]1C[C@@H](C(=O)O)CC1=C(F)F [CPP-115, (1S,3S)-3-amino+difluoromethylenyl-1-cyclopentanoic acid, reference compound]",,,0.097 min⁻¹,,,not to inactivate or inhibit,not to inactivate or inhibit,116 µM
